Converted amounts (≈) assume the structure as drawn.
Assays:
[1] = Toxicity (mice, 24 hour values); conditions: mouse, in vivo
Procedure: TOXICITY (mice, 24 hour values)

Proteus rettgeri = assay: Activity in vitro: Minimum Inhibitory Concentration; type: cell-based; conditions: Providencia rettgeri
Source text: (§1) Activity in vitro: Minimum Inhibitory Concentration (μg/ml)

Proteus vulgaris = assay: as above; type: cell-based
Source text: as §1

[2] = system: Staphylococcus aureus Penicillin-resistant strain; assay: as above; type: cell-based
Source text: as §1

[3] = system: Staphylococcus aureus ATCC 6538; assay: as above; type: cell-based; conditions: ATCC6538
Source text: as §1

Escherichia coli = assay: as above; type: cell-based
Source text: as §1

Proteus mirabilis [4] = assay: as above; type: cell-based
Source text: as §1

Klebsiella pneumoniae = assay: as above; type: cell-based
Source text: as §1

Haemophilus influenzae = assay: as above; type: cell-based
Source text: as §1

Proteus mirabilis [5] = assay: Activity in vivo: survival of mice infected intraperitoneally with Proteus mirabilis; conditions: sc, 96 h; mice infected i.p. with Proteus mirabilis; compound s.c. one hour after infection; survival on 4th day; by interpolation; read-out: CD50 (dosage at which 50% of the mice survive)
Procedure: Groups of 10 mice are infected intraperitoneally with an aqueous suspension of Proteus mirabilis. One hour after the infection the test compound is administered subcutaneously. The number of surviving mice is determined on the 4th day. Various dosages of test compound are administered and the dosage at which 50% of the mice survice (CD50, mg/kg) is determined by interpolation.

[6] = Haemophilus influenzae strain 1
[7] = Haemophilus influenzae strain 2
[8] = Haemophilus influenzae strain 3
[9] = Haemophilus influenzae strain 4
[10] = Haemophilus influenzae strain 5
[11] = Haemophilus influenzae strain 6
[12] = Haemophilus influenzae strain 7

Compound | LD50 at 24 h ([1]; iv, mice, 24 hour values) [mg/kg] | MIC (Proteus rettgeri) [µg/mL] | MIC (Proteus vulgaris) [µg/mL] | MIC [2] [µg/mL] | MIC [3] [µg/mL] | MIC (Escherichia coli; Escherichia coli strain 1) [µg/mL] | MIC (Escherichia coli; Escherichia coli strain 2) [µg/mL] | MIC (Proteus mirabilis [4]; Proteus mirabilis strain 1) [µg/mL] | MIC (Proteus mirabilis [4]; Proteus mirabilis strain 2) [µg/mL] | MIC (Klebsiella pneumoniae) [µg/mL] | MIC (Haemophilus influenzae; [6]) [µg/mL] | MIC (Haemophilus influenzae; [7]) [µg/mL] | MIC (Haemophilus influenzae; [8]) [µg/mL] | MIC (Haemophilus influenzae; [9]) [µg/mL] | MIC (Haemophilus influenzae; [10]) [µg/mL] | MIC (Haemophilus influenzae; [11]) [µg/mL] | MIC (Haemophilus influenzae; [12]) [µg/mL] | ED50 (Proteus mirabilis [5]) [mg/kg] | other results
CON=C(C(=O)N[C@@H]1C(=O)N2C(C(=O)O)=C(CSc3nc(=O)c(=O)[nH]n3C)CS[C@H]12)c1ccco1 [Compound A, (7R)-7-[2-(2-furyl)-2-(methoxyimino)acetamido]-3-[[(1,2,5,6-tetrahydro-2-methyl-5,6-dioxo-as-triazin-3-yl)thio]methyl]-3-cephem-4-carboxylic acid] | 500 to 1000 | 0.63 (≈ 1.21 µM) | 5 (≈ 9.57 µM) | 5 (≈ 9.57 µM) | 2.5 (≈ 4.78 µM) | 0.63 (≈ 1.21 µM) | 40 (≈ 76.6 µM) | 2.5 (≈ 4.78 µM) | 5 (≈ 9.57 µM) | 10 (≈ 19.1 µM) | 1.2 (≈ 2.3 µM) | 0.16 (≈ 0.306 µM) | 0.16 (≈ 0.306 µM) | 0.16 (≈ 0.306 µM) | 0.08 (≈ 0.153 µM) | 0.16 (≈ 0.306 µM) | 0.08 (≈ 0.153 µM) | 0.09 | LD50 at 24 h ([1]; po, mice, 24 hour values): > 5000 mg/kg; LD50 at 24 h ([1]; sc, mice, 24 hour values): > 4000 mg/kg
CON=C(C(=O)N[C@@H]1C(=O)N2C(C(=O)O)=C(CSc3ccn(N)c(=O)n3)CS[C@H]12)c1ccco1 [Compound B, (7R)-7-[2-(2-furyl)-2-(methoxyimino)acetamido]-3-[[(1-amino-1,2-dihydro-2-oxo-4-pyrimidinyl)thio]-methyl]-3-cephem-4-carboxylic acid] | 1000 to 2000 | 2.5 (≈ 4.94 µM) | 40 (≈ 79 µM) | 1.2 (≈ 2.37 µM) | 0.16 (≈ 0.316 µM) | 2.5 (≈ 4.94 µM) | 20 (≈ 39.5 µM) | 10 (≈ 19.7 µM) | 40 (≈ 79 µM) | 20 (≈ 39.5 µM) | 2.5 (≈ 4.94 µM) | 0.63 (≈ 1.24 µM) | 0.63 (≈ 1.24 µM) | 0.31 (≈ 0.612 µM) | 0.31 (≈ 0.612 µM) | 0.31 (≈ 0.612 µM) | 0.31 (≈ 0.612 µM) | 3 | 
CON=C(C(=O)N[C@@H]1C(=O)N2C(C(=O)O)=C(CSc3nc(=O)c(=O)[nH]n3C)CS[C@H]12)c1ccccc1 [Compound C, (7R)-7-[2-(phenyl)-2-(methoxyimino)acetamido]-3-[[(1,2,5,6-tetrahydro-2-methyl-5,6-dioxo-as-triazin-3-yl)thio]methyl]-3-cephem-4-carboxylic acid] | 1000 to 2000 | 0.63 (≈ 1.18 µM) | 10 (≈ 18.8 µM) | 2.5 (≈ 4.69 µM) | 2.5 (≈ 4.69 µM) | 1.2 (≈ 2.25 µM) | 10 (≈ 18.8 µM) | 10 (≈ 18.8 µM) | 20 (≈ 37.6 µM) | 20 (≈ 37.6 µM) | 2.5 (≈ 4.69 µM) | 0.16 (≈ 0.3 µM) | 0.16 (≈ 0.3 µM) | 0.16 (≈ 0.3 µM) | 0.08 (≈ 0.15 µM) | 0.08 (≈ 0.15 µM) | 0.08 (≈ 0.15 µM) | 0.6 | 
CON=C(C(=O)N[C@@H]1C(=O)N2C(C(=O)O)=C(CSc3n[nH]c(=O)c(=O)n3C)CS[C@H]12)c1ccco1 [Compound D, (7R)-7-[2-(2-furyl)-2-(methoxyimino)acetamido]-3-[[(1,4,5,6-tetrahydro-4-methyl-5,6-dioxo-as-triazin-3-yl)thio]methyl]-3-cephem-4-carboxylic acid] | 500 to 1000 | 0.63 (≈ 1.21 µM) | 1.2 (≈ 2.3 µM) | 0.63 (≈ 1.21 µM) | 0.63 (≈ 1.21 µM) | 0.16 (≈ 0.306 µM) | 5 (≈ 9.57 µM) | 10 (≈ 19.1 µM) | 20 (≈ 38.3 µM) | 5 (≈ 9.57 µM) | 2.5 (≈ 4.78 µM) | 0.31 (≈ 0.593 µM) | 0.31 (≈ 0.593 µM) | 0.31 (≈ 0.593 µM) | 0.16 (≈ 0.306 µM) | 0.16 (≈ 0.306 µM) | 0.16 (≈ 0.306 µM) | 0.7 | LD50 at 24 h ([1]; po, mice, 24 hour values): > 5000 mg/kg; LD50 at 24 h ([1]; sc, mice, 24 hour values): > 4000 mg/kg
CON=C(C(=O)N[C@@H]1C(=O)N2C(C(=O)O)=C(CSc3nc(=O)c(=O)[nH]n3C)CS[C@H]12)c1cccs1 [Compound E] |  | 2.5 (≈ 4.64 µM) | 10 (≈ 18.6 µM) | 2.5 (≈ 4.64 µM) | 2.5 (≈ 4.64 µM) | 2.5 (≈ 4.64 µM) | 20 (≈ 37.1 µM) | 10 (≈ 18.6 µM) | 20 (≈ 37.1 µM) | 40 (≈ 74.3 µM) | 2.5 (≈ 4.64 µM) | 0.16 (≈ 0.297 µM) | 0.16 (≈ 0.297 µM) | 0.16 (≈ 0.297 µM) | 0.08 (≈ 0.149 µM) | 0.08 (≈ 0.149 µM) | 0.08 (≈ 0.149 µM) | 1.15 | LD50 at 24 h ([1]; iv): 2000 to 4000 mg/kg
CCn1nc(SCC2=C(C(=O)O)N3C(=O)[C@@H](NC(=O)C(=NOC)c4ccco4)[C@H]3SC2)[nH]c(=O)c1=O [Compound F] |  | 10 (≈ 18.6 µM) | 20 (≈ 37.3 µM) | 5 (≈ 9.32 µM) | 5 (≈ 9.32 µM) | 1.2 (≈ 2.24 µM) | 80 (≈ 149 µM) | 20 (≈ 37.3 µM) | 40 (≈ 74.6 µM) | 40 (≈ 74.6 µM) | 2.5 (≈ 4.66 µM) | 0.31 (≈ 0.578 µM) | 1.2 (≈ 2.24 µM) | 0.16 (≈ 0.298 µM) | 0.08 (≈ 0.149 µM) | 0.08 (≈ 0.149 µM) | 0.16 (≈ 0.298 µM) | 0.85 | LD50 at 24 h ([1]; iv): 1000 to 2000 mg/kg
Cn1c(SCC2=C(C(=O)O)N3C(=O)[C@@H](NC(=O)C(=NOCC(N)=O)c4ccco4)[C@H]3SC2)n[nH]c(=O)c1=O [Compound G, (7R)-7-[2-[(carbamoylmethoxy)imino]-2-(2-furyl)-acetamido]-3-[[(1,4,5,6-tetrahydro-4-methyl-5,6-dioxo-as-triazin-3-yl)thio]methyl]-3-cephem-4-carboxylic acid] | > 4000 | 0.63 (≈ 1.11 µM) | 1.2 (≈ 2.12 µM) | 1.2 (≈ 2.12 µM) | 1.2 (≈ 2.12 µM) | 0.31 (≈ 0.548 µM) | 5 (≈ 8.84 µM) | 5 (≈ 8.84 µM) | 10 (≈ 17.7 µM) | 2.5 (≈ 4.42 µM) | 5 (≈ 8.84 µM) | 0.63 (≈ 1.11 µM) | 0.31 (≈ 0.548 µM) | 0.63 (≈ 1.11 µM) | 0.31 (≈ 0.548 µM) | 0.63 (≈ 1.11 µM) | 0.63 (≈ 1.11 µM) | 0.8 | 
